We go through four molecules from patent US10859587B2, “Application of artificially expressed HSP27 protein in detecting a residue of a β2-adrenergic receptor agonist-based drug” (HENAN ACADEMY OF AGRICULTURAL SCIENCE, priority 2016, dated 2020).

The test system of experiment [1] is artificially expressed HSP27 protein. The experiment is described as follows: ELISA binding experiment between HSP27 protein and biotin-conjugated small molecules. The conditions noted are these: 100 ng/mL biotin-conjugated small molecule; HSP27 coated in gradient from 100 μg/mL. The method, then: 1. The bacteria solution of BL21 (DE3) host bacteria of artificially expressed HSP27 was subjected to ultrasonication, and then coated in gradient on a ELISA plate with an initial concentration of 100 μg/mL (based on the protein) in an amount of 50 μL/well;
2. 100 ng/mL of small molecules conjugated biotin was added into the resultant ELISA plate in an amount of 50 μL/well, mixed well on a shaker, and incubated at 37° C. for 30 min in the dark; the ELISA plate was washed with an ELISA plate washing machine for 4 times, or the liquid in the wells of the ELISA plate was manually removed by shaking out, each well was filled with diluted buffer solution, and then shaken out the liquid to dry again, and washing as repeated in this way for 4 times;
3. HRP-labeled streptavidin conjugate was added into the ELISA plate, and the reaction was carried out at 37° C. for 30 min; washing was performed in the same way as the above step for 4 times.
4. TMB solution was added into corresponding microwells according to the required amount of 100 μL per well, and the plate was shaken on the ELISA plate shaker for 30 s, and subjected to color development at room temperature for 10 min;
5. 50 μL of 2 mol/L sulfuric acid was added to each well to terminate the reaction, and the plate was shaken on the ELISA plate shaker for 30 s, and then the absorbance at 450 nm of each well was read with a microplate reader, and the results were judged (see FIG. 2 for the results).

For experiment [2], the system named is HSP27 polyclonal antiserum. The experiment is described as follows: ELISA identification of artificially expressed HSP27 protein with HSP27 polyclonal antiserum. The format is binding. The conditions noted are these: HSP27 1 μg/mL. The method, then:
The artificially expressed HSP27 protein at an optimal concentration was selected as a coating antigen, and coated on the ELISA plate in an amount of 50 μL/well. The plate was placed in a 37° C. constant temperature incubator for reaction for 2 h, washed with PBST for 4 times, and air-dried at room temperature. BSA with a mass fraction of 1% was added as a blocking solution in amount of 200 μL/well, and reaction was carried out at a constant temperature of 37° C. for 1 h. The resultant plate was washed with PBST for 4 times, and air-dried at room temperature. Then, HSP27 polyclonal antiserum with gradient concentrations was added at 50 μL/well, a negative control (NC) was set, and the plate was held at 37° C. for 30 min, and washed for 4 times. 50 μL of goat anti-mouse secondary antibody (1:1000) was added to each well, and the plate was held at 37° C. for 30 min, and then washed for 4 times. The color development reaction was carried out with TMB color developing solution in an amount of 100 μL/well, and 10 minutes later, the reaction was terminated with 50 μL of 2 mol/L H2SO4. The absorbance of each well was read at 450 nm with a microplate reader.

As for `CC(Cc1ccc(O)cc1)NCC(O)c1cc(O)cc(O)c1` (stereo not shown) [Fenoterol], the “binding to HSP27 (ELISA, absorbance at 450 nm, FIG. 2)” value (from here on “binding to HSP27”) in experiment [1] was “can bind to HSP27”.

For the molecule `CC(CCc1ccc(O)cc1)NCC(O)c1ccc(O)cc1` (racemic) [Ractopamine], the “binding to HSP27” value in experiment [1] is on record as “can bind to HSP27”.

On to “artificially expressed HSP27 protein: HSP27 CDS cloned in pLSLa vector, expressed in BL21 (DE3) with IPTG, purified by agarose resin column”, for which the “absorbance at 450 nm” value stood at 4.00 in experiment [2] (serum dilution ratio 5000); 3.92 in experiment [2] (serum dilution ratio 10000); 4.00 in experiment [2] (serum dilution ratio 20000); 3.77 in experiment [2] (serum dilution ratio 40000); 3.50 in experiment [2] (serum dilution ratio 80000); 2.60 in experiment [2] (serum dilution ratio 160000). In addition, the “absorbance at 450 nm” value in experiment [2] (serum dilution ratio 320000) came out at 1.63; in experiment [2] (serum dilution ratio 640000), 0.97; in experiment [2] (serum dilution ratio 1280000) it was 0.67; in experiment [2] (serum dilution ratio 2560000) it was 0.51.

Regarding `CC(C)(C)NCC(O)c1cc(Cl)c(N)c(Cl)c1` (stereo not shown) [Clenbuterol], in experiment [1], the “binding to HSP27” value is given as “can bind to HSP27”.
